# Values of other authors, collected in US6998494B2, “Preparation of trans-fused 3,3a,8,12b-tetrahydro-2h-dibenzo[3,4:6,7]cyclohepta[1,2-b]furan derivatives” (Janssen Pharmaceutica N.V., priority 2001, dated 2006).
# Conditions: dose of 300 mg/kg
smiles,measurement,value
"CNCC1CC2c3ccccc3Cc3ccccc3C2O1.O=C(O)C(=O)O (racemic) [(±)-3,3a,8,12b-tetrahydro-N-methyl-2H-dibenzo[3,4:6,7]-cyclohepta[1,2-b]furan-2-methanamine oxalic acid]",activity as an antidepressant,inactive
